Test results: US7935869B2, “Chimeric gene with several herbicide tolerance genes, plant cell and plant resistant to several herbicides” (Bayer S.A.S., priority 1996, dated 2011)
Where two headings read alike, the source gives them in different places.

How the values were obtained:
[1] = test system: PBD6 tobacco transformed with pRP 2012; assay: Tolerance of tobacco transformed with chimeric gene pRP 2012 (HPPD + double mutant EPSPS); type: in vivo; settings: under the conditions described in Example 7
Description: The chimeric gene pRP 2012 described below is transferred into the PBD6 industrial tobacco according to the transformation and regeneration procedures already described in European Application EP No. 0 508 909.
The regeneration of the PBD6 tobacco (source SEITA France) from foliar explants is carried out on a Murashige and Skoog (MS) basal medium comprising 30 g/l of sucrose and 350 mg/l of cefotaxime and 1 mg/l of isoxaflutole. The foliar explants are removed from is greenhouse plants or in vitro and transformed according to the foliar disc technique (Science 1985, Vol. 227, p. 1229-1231) in three successive stages: the first comprises the induction of shoots on an MS medium supplemented with 30 g/l of sucrose containing 0.05 mg/l of naphthylacetic acid (ANA) and 2 mg/l of benzylaminopurine (BAP) for 15 days and 1 mg/l of isoxaflutole. The green shoots formed during this stage are then developed by culturing on an MS medium supplemented with 30 g/l of sucrose and 1 mg/l of isoxaflutole but containing no hormone, for 10 days. The shoots that have developed are then removed and they are cultured on MS rooting medium with half the content of salts, vitamins and sugars and 1 mg/l of isoxaflutole and containing no hormone. […]
All the plants obtained according to this protocol are analysed by PCR with primers specific for P. fluorescens HPPD. […]

[2] = test system: maize EPSPS mutant Ile 102/Ser 106; assay: EPSP synthase enzymatic activity, resistance to glyphosate in vitro; type: biochemical
Description: (§1) The various EPSP synthase genes are introduced in the form of an NcoI-HindIII cassette into the plasmid is vector pTrc99a (Pharmacia, ref: 27-5007-01) cut with NcoI and HindIII. The recombinant E. coli DH10B overexpressing the various EPSP syntheses are sonicated in 40 ml of buffer per 10 g of culotted cells and washed with this same buffer (200 mM Tris-HCl pH 7.8, 50 mM mercaptoethanol, 5 mM EDTA and 1 mM PMSF), to which 1 g of polyvinylpyrrolidone is added. The suspension is stirred for 15 minutes at 4° C. and then centrifuged for 20 minutes at 27,000 g and at 4° C.
(§2) The supernatant is supplemented with ammonium sulphate so as to bring the solution to 40% saturation with ammonium sulphate. The mixture is centrifuged for 20 minutes at 27,000 g and at 4° C. The new supernatant is supplemented with ammonium sulphate so as to bring the solution to 70% saturation with ammonium sulphate. The mixture is centrifuged for 30 minutes at 27,000 g and at 4° C. The EPSP synthase present in this protein pellet is taken up in 1 ml of buffer (20 mM Tris-HCl pH 7.8 and 50 mM mercaptoethanol). This solution is dialysed overnight against two litres of this same buffer at 4° C.
(§3) The activity of each enzyme as well as its resistance to glyphosate is measured in vitro over 10 minutes at 37° C. in the following reaction mixture: 100 mM maleic acid pH 5.6, 1 mM phosphoenol pyruvate, 3 mM shikimate-3-phosphate (prepared according to Knowles P. P. and Sprinson D. B., 1970, Methods in Enzymol., 17A, 351-352 from Aerobacter aerogenes strain ATCC 25597) and 10 mM potassium fluoride. The enzymatic extract is added at the last moment after the addition of glyphosate whose final concentration varies from 0 to 20 mM.
(§4) The activity is measured by assaying the phosphate liberated according to the technique of Tausky H. A. and Shorr B., 1953, J. Biol. Chem., 202, 675-685.

[3] = molecular target: T1, maize EPSPS mutant Ile 102 (Zea mays, UniProt A0A1D6NVZ6, T164I); assay: as above; type: biochemical
T1 sequence (A0A1D6NVZ6 63-506 T164I): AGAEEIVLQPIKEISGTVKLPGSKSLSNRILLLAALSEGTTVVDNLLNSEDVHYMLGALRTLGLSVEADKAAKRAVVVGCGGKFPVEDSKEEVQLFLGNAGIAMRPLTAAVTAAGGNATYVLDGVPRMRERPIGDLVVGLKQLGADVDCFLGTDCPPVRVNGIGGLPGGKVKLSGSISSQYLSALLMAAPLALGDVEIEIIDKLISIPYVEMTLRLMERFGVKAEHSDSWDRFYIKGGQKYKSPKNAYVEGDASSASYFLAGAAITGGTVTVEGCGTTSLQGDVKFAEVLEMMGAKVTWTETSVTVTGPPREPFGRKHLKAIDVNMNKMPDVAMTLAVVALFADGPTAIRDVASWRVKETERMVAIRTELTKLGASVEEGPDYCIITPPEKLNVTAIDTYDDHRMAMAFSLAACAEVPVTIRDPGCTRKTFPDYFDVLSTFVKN
Description: as §1, §2, §3, §4

[4] = test system: wild-type (WT) maize EPSPS; assay: as above; type: biochemical; settings: 0.12 mM glyphosate; 10 minutes at 37° C., pH 5.6
Description: as §1, §2, §3, §4

[5] = test system: maize EPSPS mutant Ala; assay: as above; type: biochemical
Description: as §1, §2, §3, §4

[6] = test system: maize EPSPS mutant Ser106; assay: as above; type: biochemical; settings: 0.12 mM glyphosate
Description: as §1, §2, §3, §4

[7] = test system: maize EPSPS mutant Ala 101/Ile 102; assay: as above; type: biochemical
Description: as §1, §2, §3, §4

[8] = test system: PBD6 tobacco plants HPPD + EPSPS; assay: Postemergence tolerance of tobacco, percentage destruction; type: in vivo; settings: 17 days after treatment
Description: (§5) In this trial, each test is performed on a sample of 10 plants, 10 plants being kept untreated.
(§6) All the treatments are performed by spraying at the rate of 500 l of spraying mixture per hectare.
(§7) For the postemergence treatment, sowing is performed and then the plants are transplanted in 9 cm×9 cm pots.
The postemergence treatments are carried out at a well developed stage (3-4 leaves). Batches of plants, respectively wild-type and genetically transformed, obtained above are divided into several parts, with:
Under these conditions, the following phytotoxicities are observed 17 days after the treatment, expressed as percentage destruction indicated in the following table, as well as the number of plants per batch and the doses of herbicide(s) expressed in gram of active substance per hectare: […]

[9] = test system: wild-type tobacco without tolerance gene; assay: as above; type: in vivo; settings: 17 days after treatment
Description: as §5, §6, §7
(§8) The postemergence treatments are carried out at a well developed stage (3-4 leaves). Batches of plants, respectively wild-type and genetically transformed, obtained above are divided into several parts, with: […]

[10] = test system: nontransgenic maize; assay: Selection of maize seeds on sand after isoxaflutole treatment; type: in vivo; settings: 100 g/ha, 20 seeds sown
Description: (§9) The transformed plants obtained above produced pollen, assumed in part to be transgenic, which fertilized ovules from a nontransgenic wild-type maize. The seeds obtained are selected on sand after treating with isoxaflutole.
The selection protocol is the following: 800 ml of Fontainebleau sand are placed in a tub with sides 15×20 cm. These tubs are then sprayed with water and kept hydrated by supplying a nutritive solution consisting of 5 ml of Quinoligo (Quinoline) per litre of water. Twenty maize seeds are placed on the tubs, which are then treated with isoxaflutole by spraying at the rate of 100 to 200 g of active substance per hectare (300 or 600 μg of active substance per tub). The tubs are then placed in culture in a greenhouse.

[11] = test system: maize genotype 261 2B 459 (progeny of HPPD-transformed plants); assay: as above; type: in vivo; settings: 10 seeds sown
Description: as §9
(§10) The selection protocol is the following: 800 ml of Fontainebleau sand are placed in a tub with sides 15×20 cm. These tubs are then sprayed with water and kept hydrated by supplying a nutritive solution consisting of 5 ml of Quinoligo (Quinoline) per litre of water. […] The tubs are then placed in culture in a greenhouse.

[12] = test system: maize genotype 261 2A2 (progeny of HPPD-transformed plants); assay: as above; type: in vivo; settings: 10 seeds sown
Description: as §9, §10

[13] = test system: maize genotype 261 2D2 (progeny of HPPD-transformed plants); assay: as above; type: in vivo; settings: 10 seeds sown
Description: as §9, §10

[14] = test system: PBD6 tobacco overexpressing the P. fluorescens HPPD; assay: Greenhouse treatment of transformed tobacco overexpressing HPPD with isoxaflutole; type: in vivo
Excerpt: To determine the efficiency of these two chimeric genes, they were transferred into the industrial tobacco PBD6 according to the transformation and regeneration techniques already described in European Application EP No. 0 508 909.
The vector is introduced into the non oncogenic Agrobacterium EHA 101 strain (Hood et al., 1987) carrying the cosmaid pTVK 291 (Komari et al., 1986). The transformation technique is based on the procedure by Horsh R. et al., (1985) Science, 227, 1229-1231.
The regeneration of the PBD6 tobacco (source SEITA France) from foliar explants is carried out on a Murashige and Skoog (MS) basal medium comprising 30 g/l of sucrose and 100 μg/ml of kanamycin. The foliar explants are removed from greenhouse plants or in vitro and transformed according to the foliar disc technique (Science 1985, Vol. 227, p. 1229-1231) in three successive stages: the first comprises the induction of shoots on an MS medium supplemented with 30 g/l of sucrose containing 0.05 mg/l of naphthylacetic acid (ANA) and 2 mg/l of benzylaminopurine (BAP) for 15 days. The shoots formed during this stage are then developed by culturing on an MS medium supplemented with 30 g/l of sucrose but containing no hormone, for 10 days. […]

[15] = test system: control tobacco, not transformed (PBD6); assay: Greenhouse treatment of non-transformed control tobacco with isoxaflutole; type: in vivo
Description: Upon leaving in vitro, the transformed tobacco plantlets were acclimatized in a greenhouse (60% relative humidity, temperature: 20° C. at night and 23° C. during the day) for five weeks and then treated with 4-[4-CF3-2-(methylsulphonyl)benzoyl]-5-cyclopropylisoxazole.
The control tobacco, not transformed and treated with 4-[4-CF3-2-(methylsulphonyl)benzoyl]-5-cyclopropylisooxazole at doses ranging from 50 to 400 g/ha, develop chlorosis in about 72 hours, which intensifies and develops into very pronounced necrosis within one week (covering about 80% of the terminal leaves).

[16] = test system: PBD6 tobacco plants HPPD + OXY; assay: Postemergence tolerance of tobacco, percentage destruction; type: in vivo; settings: 17 days after treatment
Description: as §5, §6, §7, §8

Compound: O=C(O)CNCP(=O)(O)O [glyphosate]
- tolerance [1]: tolerant
- inhibition of enzyme activity ([2]; 0.12 mM glyphosate): not or not strongly inhibited
- inhibition of enzyme activity ([2]; 1.2 mM glyphosate): not being inhibited
- reduction of enzyme activity ([2]; 20 mM glyphosate): not reduced
- inhibition of enzyme activity ([3]; 0.12 mM glyphosate): not or not strongly inhibited
- IC50 ([3]; 10 minutes at 37° C., pH 5.6, read-out: glyphosate concentration to inhibit the enzyme by 50%): 1.2 mM
- inhibition of enzyme activity [4]: 85%
- inhibition of enzyme activity [5]: not inhibited
- inhibition of enzyme activity ([5]; 1.2 mM glyphosate): not being inhibited
- inhibition of enzyme activity [6]: 50%
- inhibition of enzyme activity ([7]; 0.12 mM glyphosate): not or not strongly inhibited
- inhibition of enzyme activity ([7]; 1.2 mM glyphosate): not being inhibited
- inhibition of enzyme activity ([7]; up to concentrations of 10 m glyphosate): not inhibited
- phytotoxicity, percentage destruction ([8]; 800 g/ha postemergence): 0%
- phytotoxicity, percentage destruction ([8]; 1200 g/ha postemergence): 0%
- phytotoxicity, percentage destruction ([9]; 800 g/ha postemergence): 100%
- phytotoxicity, percentage destruction ([9]; 1200 g/ha postemergence): 100%

Compound: CS(=O)(=O)c1cc(C(F)(F)F)ccc1C(=O)c1cnoc1C1CC1 [isoxaflutole, 4-[4-CF3-2-(methylsulphonyl)benzoyl]-5-cyclopropylisoxazole]
- tolerance [1]: tolerant
- Number of dead plants [10]: 20
- Number of germinated plants [10]: 20
- Number of surviving plants [10]: 0
- Number of dead plants ([11]; 100 g/ha): 5
- Number of germinated plants ([11]; 100 g/ha): 10
- Number of surviving plants ([11]; 100 g/ha): 5
- Number of dead plants ([11]; 200 g/ha): 4
- Number of germinated plants ([11]; 200 g/ha): 9
- Number of surviving plants ([11]; 200 g/ha): 5
- Number of dead plants ([12]; 100 g/ha): 3
- Number of germinated plants ([12]; 100 g/ha): 5
- Number of surviving plants ([12]; 100 g/ha): 2
- Number of dead plants ([12]; 200 g/ha): 7
- Number of germinated plants ([12]; 200 g/ha): 7
- Number of surviving plants ([12]; 200 g/ha): 0
- Number of dead plants ([13]; 100 g/ha): 6
- Number of germinated plants ([13]; 100 g/ha): 9
- Number of surviving plants ([13]; 100 g/ha): 3
- Number of dead plants ([13]; 200 g/ha): 7
- Number of germinated plants ([13]; 200 g/ha): 10
- Number of surviving plants ([13]; 200 g/ha): 3
- protection against treatment ([14]; dose of 400 g/ha): very well protected
- protection against treatment, symptoms ([14]; enzyme overexpressed in the chloroplast (vector pRP V)): perfectly protected and shows no symptom
- time to development of chlorosis ([15]; doses ranging from 50 to 400 g/ha): about 72 hours
- very pronounced necrosis, share of the terminal leaves covered ([15]; within one week, doses 50 to 400 g/ha): about 80%
- phytotoxicity, percentage destruction ([8]; 200 g/ha postemergence): 2%
- phytotoxicity, percentage destruction ([8]; 400 g/ha postemergence): 3%
- phytotoxicity, percentage destruction ([16]; 200 g/ha postemergence): 4%
- phytotoxicity, percentage destruction ([16]; 400 g/ha postemergence): 5%
- phytotoxicity, percentage destruction ([9]; 200 g/ha postemergence): 75%
- phytotoxicity, percentage destruction ([9]; 400 g/ha postemergence): 85%
